According to US11903387B2 (priority 2016, dated 2024):
Several values for one entry are separate records, joined by “and”; a condition that tells them apart may be missing. Identical values can stand only once. Like-named read-outs stand apart in the source and are kept apart here.

What was measured:
[1] = test system: Pseudoperonospora cubensis; experiment: Test 2: control effect against cucumber downy mildew; type: in vivo
Phytophthora infestans = experiment: whole plant or invertebrate; type: in vivo
[2] = Pseudoperonospora cubensis, component (b) alone, 0.4 ppm, read-out: Test 2 Measured
[3] = component (b) alone 0.08 ppm, average of three repeats
[4] = component (b) alone 0.4 ppm, average of three repeats
[5] = Phytophthora infestans, in Solanum lycopersicum, read-out: Test 1 Measured preventive value, component (b) alone, 0.4 ppm
[6] = Phytophthora infestans, in Solanum lycopersicum, read-out: Test 1 Measured preventive value, component (b) alone, 2 ppm
[7] = Phytophthora infestans, in Solanum lycopersicum, read-out: Test 1 Measured, component (b) alone, 0.4 ppm
[8] = Phytophthora infestans, in Solanum lycopersicum, read-out: Test 1 Measured, component (b) alone, 2 ppm
[9] = component (b) alone 2 ppm, average of three repeats
[10] = Pseudoperonospora cubensis, applied alone, 10 ppm, read-out: Test 2 preventive value, Measured
[11] = Phytophthora infestans, in Solanum lycopersicum, read-out: Test 1 preventive value, Measured, applied alone, 10 ppm
[12] = Phytophthora infestans, in Solanum lycopersicum, read-out: Test 1 preventive value, Measured, applied alone, 50 ppm

Cc1ccc(-c2c(Cl)nc(C#N)n2S(=O)(=O)N(C)C)cc1 [Cyazofamid]
pest or weed control at 0.003 ppm ([1]; Pseudoperonospora cubensis, component (b) alone, 0.003 ppm, read-out: Test 2 Measured): 0%
pest or weed control at 0.08 ppm ([1]; Pseudoperonospora cubensis, component (b) alone, 0.08 ppm, read-out: Test 2 Measured): 99%
pest or weed control at 0.4 ppm [1, 2]: 100%
Test 2 Measured preventive value ([1]; component (b) alone 0.003 ppm, average of three repeats): 0
Test 2 Measured preventive value [1, 3]: 99.5
Test 2 Measured preventive value [1, 4]: 100
Test 2 Measured preventive value ([1]; component (b) alone, 0.003 ppm): 0
Test 2 Measured preventive value ([1]; component (b) alone, 0.08 ppm): 99.5
Test 2 Measured preventive value ([1]; component (b) alone, 0.4 ppm): 100
pest or weed control at 0.08 ppm (Phytophthora infestans; Phytophthora infestans, in Solanum lycopersicum, read-out: Test 1 Measured preventive value, component (b) alone 0.08 ppm, average of three repeats): 46.7%
pest or weed control at 0.4 ppm (Phytophthora infestans; Phytophthora infestans, in Solanum lycopersicum, read-out: Test 1 Measured preventive value, component (b) alone 0.4 ppm, average of three repeats): 95.5%
pest or weed control at 2 ppm (Phytophthora infestans; Phytophthora infestans, in Solanum lycopersicum, read-out: Test 1 Measured preventive value, component (b) alone 2 ppm, average of three repeats): 100%
pest or weed control at 0.08 ppm (Phytophthora infestans; Phytophthora infestans, in Solanum lycopersicum, read-out: Test 1 Measured preventive value, component (b) alone, 0.08 ppm): 46.7%
pest or weed control at 0.4 ppm (Phytophthora infestans; [5]): 95.5%
pest or weed control at 2 ppm (Phytophthora infestans; [6]): 100%
pest or weed control at 0.08 ppm (Phytophthora infestans; Phytophthora infestans, in Solanum lycopersicum, read-out: Test 1 Measured, component (b) alone, 0.08 ppm): 32%
pest or weed control at 0.4 ppm (Phytophthora infestans; [7]): 96%
pest or weed control at 2 ppm (Phytophthora infestans; [8]): 100%

C#CCOc1ccc(CCNC(=O)C(OCC#C)c2ccc(Cl)cc2)cc1OC (stereo not drawn) [Mandipropamid]
Test 2 Measured preventive value [1, 3]: 5
Test 2 Measured preventive value [1, 4]: 89.5
Test 2 Measured preventive value [1, 9]: 95
Test 2 Measured ([1]; component (b) alone, 0.08 ppm): 12
Test 2 Measured preventive value ([1]; component (b) alone, 0.08 ppm): 5
Test 2 Measured ([1]; component (b) alone, 0.4 ppm): 88.3
Test 2 Measured preventive value ([1]; component (b) alone, 0.4 ppm): 89.5
Test 2 Measured ([1]; component (b) alone, 2 ppm): 95
Test 2 Measured preventive value ([1]; component (b) alone, 2 ppm): 95
Test 1 Measured preventive value (Phytophthora infestans; [3]): 36.7
Test 1 Measured preventive value (Phytophthora infestans; [4]): 95.5
Test 1 Measured preventive value (Phytophthora infestans; [9]): 100.0
Test 1 Measured (Phytophthora infestans; component (b) alone, 0.08 ppm): 40.0
Test 1 Measured preventive value (Phytophthora infestans; component (b) alone, 0.08 ppm): 36.7
Test 1 Measured (Phytophthora infestans; component (b) alone, 0.4 ppm): 94.0
Test 1 Measured preventive value (Phytophthora infestans; component (b) alone, 0.4 ppm): 95.5
Test 1 Measured (Phytophthora infestans; component (b) alone, 2 ppm): 100.0
Test 1 Measured preventive value (Phytophthora infestans; component (b) alone, 2 ppm): 100.0

Cc1c(Br)c2ccc(F)cc2n1S(=O)(=O)c1ncn(S(=O)(=O)N(C)C)n1 [Amisulbrom]
Test 2 Measured ([1]; component (b) alone, 0.4 ppm): 27.5
Test 2 Measured ([1]; component (b) alone, 2 ppm): 98.8
Test 2 Measured ([1]; component (b) alone, 10 ppm): 100
Test 1 Measured (Phytophthora infestans; component (b) alone, 0.4 ppm): 60
Test 1 Measured (Phytophthora infestans; component (b) alone, 2 ppm): 80
Test 1 Measured (Phytophthora infestans; component (b) alone, 10 ppm): 97

CCC(C)(NC(=O)c1cc(Cl)c(C)c(Cl)c1)C(=O)CCl (stereo not drawn) [Zoxamide]
Test 2 Measured preventive value ([1]; component (b) alone, 2 ppm): 94
Test 2 Measured preventive value ([1]; component (b) alone, 10 ppm): 97.3
Test 2 Measured preventive value ([1]; component (b) alone, 50 ppm): 98.8
pest or weed control at 2 ppm (Phytophthora infestans; [6]): 83.3%
pest or weed control at 10 ppm (Phytophthora infestans; Phytophthora infestans, in Solanum lycopersicum, read-out: Test 1 Measured preventive value, component (b) alone, 10 ppm): 95%
pest or weed control at 50 ppm (Phytophthora infestans; Phytophthora infestans, in Solanum lycopersicum, read-out: Test 1 Measured preventive value, component (b) alone, 50 ppm): 99%

COc1ccc(C(=CC(=O)N2CCOCC2)c2ccc(Cl)cc2)cc1OC [Dimethomorph]
Test 2 Measured preventive value ([1]; component (b) alone, 0.4 ppm): 0
Test 2 Measured preventive value ([1]; component (b) alone, 2 ppm): 62.5
Test 2 Measured preventive value ([1]; component (b) alone, 10 ppm): 95.5
pest or weed control at 0.4 ppm (Phytophthora infestans; [5]): 11.7%
pest or weed control at 2 ppm (Phytophthora infestans; [6]): 26.7%

O=[N+]([O-])c1cc(C(F)(F)F)c(Cl)c([N+](=O)[O-])c1Nc1ncc(C(F)(F)F)cc1Cl [Fluazinam]
pest or weed control at 0.4 ppm ([1]; Pseudoperonospora cubensis, applied alone, 0.4 ppm, read-out: Test 2 preventive value, Measured): 0%
pest or weed control at 2 ppm ([1]; Pseudoperonospora cubensis, applied alone, 2 ppm, read-out: Test 2 preventive value, Measured): 90.8%
pest or weed control at 10 ppm [1, 10]: 100%
pest or weed control at 2 ppm (Phytophthora infestans; Phytophthora infestans, in Solanum lycopersicum, read-out: Test 1 preventive value, Measured, applied alone, 2 ppm): 0%
pest or weed control at 10 ppm (Phytophthora infestans; [11]): 16.7%
pest or weed control at 50 ppm (Phytophthora infestans; [12]): 60.8%

Cc1cc(C(F)(F)F)nn1CC(=O)N1CCC(c2nc(C3OCc4c(F)ccc(OS(C)(=O)=O)c4CO3)cs2)CC1 (stereo not drawn) [Compound 1-8, 4-[4-(6-fluoro-9-methylsulfonyloxy-1,5-dihydro-3H-2,4-benzodioxepin-3-yl)-2-thiazolyl]-1-[2-[5-methyl-3-(trifluoromethyl)-1H-pyrazol-1-yl]acetyl]piperidine]
Test 2 Measured preventive value ([1]; Compound alone, 0.012 ppm): 10 and 12.5 and 15
Test 2 Measured preventive value ([1]; Compound alone, 0.06 ppm): 95.5 and 96.5 and 97.5
Test 2 Measured preventive value ([1]; Compound alone, 0.3 ppm): 100
pest or weed control at 0.06 ppm ([1]; Pseudoperonospora cubensis, Compound alone 0.06 ppm, read-out: Test 2 Measured): 98.8%
pest or weed control at 0.3 ppm ([1]; Pseudoperonospora cubensis, Compound alone 0.3 ppm, read-out: Test 2 Measured): 100%
pest or weed control at 0.06 ppm ([1]; Pseudoperonospora cubensis, applied alone, 0.06 ppm, read-out: Test 2 preventive value, Measured): 98%
pest or weed control at 0.3 ppm ([1]; Pseudoperonospora cubensis, applied alone, 0.3 ppm, read-out: Test 2 preventive value, Measured): 100%
Test 2 preventive value, Measured ([1]; applied alone, 0.06 ppm): 98
Test 1 Measured preventive value (Phytophthora infestans; Compound alone, 0.3 ppm): 100
pest or weed control at 0.012 ppm (Phytophthora infestans; Phytophthora infestans, in Solanum lycopersicum, read-out: Test 1 Measured preventive value, Compound alone, 0.012 ppm): 30%
pest or weed control at 0.06 ppm (Phytophthora infestans; Phytophthora infestans, in Solanum lycopersicum, read-out: Test 1 Measured preventive value, Compound alone, 0.06 ppm): 98%
pest or weed control at 0.3 ppm (Phytophthora infestans; Phytophthora infestans, in Solanum lycopersicum, read-out: Test 1 Measured preventive value, Compound alone, 0.3 ppm): 100%
pest or weed control at 0.06 ppm (Phytophthora infestans; Phytophthora infestans, in Solanum lycopersicum, read-out: Test 1 Measured, Compound alone 0.06 ppm): 96.2%
pest or weed control at 0.3 ppm (Phytophthora infestans; Phytophthora infestans, in Solanum lycopersicum, read-out: Test 1 Measured, Compound alone 0.3 ppm): 100%
pest or weed control at 0.012 ppm (Phytophthora infestans; Phytophthora infestans, in Solanum lycopersicum, read-out: Test 1 preventive value, Measured, applied alone, 0.012 ppm): 43.3%
pest or weed control at 0.06 ppm (Phytophthora infestans; Phytophthora infestans, in Solanum lycopersicum, read-out: Test 1 preventive value, Measured, applied alone, 0.06 ppm): 97.7%
pest or weed control at 0.3 ppm (Phytophthora infestans; Phytophthora infestans, in Solanum lycopersicum, read-out: Test 1 preventive value, Measured, applied alone, 0.3 ppm): 100%

N=C(N)NCCCCCCCCNCCCCCCCCNC(=N)N [Iminoctadine]
Test 2 Measured ([1]; component (b) alone, 20 ppm): 79.5
Test 2 Measured ([1]; component (b) alone, 100 ppm): 97
Test 2 Measured ([1]; component (b) alone, 500 ppm): 99
Test 1 Measured (Phytophthora infestans; component (b) alone, 20 ppm): 5
Test 1 Measured (Phytophthora infestans; component (b) alone, 100 ppm): 92.5
Test 1 Measured (Phytophthora infestans; component (b) alone, 500 ppm): 96.5

COC(=O)NCc1cc(/C(C)=N/OCc2cccc(C)n2)ccc1Cl [Pyribencarb]
pest or weed control at 10 ppm [1, 10]: 0%
pest or weed control at 50 ppm ([1]; Pseudoperonospora cubensis, applied alone, 50 ppm, read-out: Test 2 preventive value, Measured): 0%
pest or weed control at 250 ppm ([1]; Pseudoperonospora cubensis, applied alone, 250 ppm, read-out: Test 2 preventive value, Measured): 10%
pest or weed control at 10 ppm (Phytophthora infestans; [11]): 8.3%
pest or weed control at 50 ppm (Phytophthora infestans; [12]): 11.7%
pest or weed control at 250 ppm (Phytophthora infestans; Phytophthora infestans, in Solanum lycopersicum, read-out: Test 1 preventive value, Measured, applied alone, 250 ppm): 23.3%

COC(=O)NC(=S)Nc1ccccc1NC(=S)NC(=O)OC [Thiophanate-methyl]
pest or weed control at 20 ppm ([1]; Pseudoperonospora cubensis, component (b) alone 20 ppm, read-out: Test 2 Measured): 0%
pest or weed control at 100 ppm ([1]; Pseudoperonospora cubensis, component (b) alone 100 ppm, read-out: Test 2 Measured): 0%
pest or weed control at 500 ppm ([1]; Pseudoperonospora cubensis, component (b) alone 500 ppm, read-out: Test 2 Measured): 2.5%
pest or weed control at 20 ppm (Phytophthora infestans; Phytophthora infestans, in Solanum lycopersicum, read-out: Test 1 Measured, component (b) alone 20 ppm): 0%
pest or weed control at 500 ppm (Phytophthora infestans; Phytophthora infestans, in Solanum lycopersicum, read-out: Test 1 Measured, component (b) alone 500 ppm): 60%

CSC1=N[C@@](C)(c2ccccc2)C(=O)N1Nc1ccccc1 [Fenamidone]
pest or weed control at 0.4 ppm [1, 2]: 0%
pest or weed control at 2 ppm ([1]; Pseudoperonospora cubensis, component (b) alone, 2 ppm, read-out: Test 2 Measured): 0%
pest or weed control at 10 ppm ([1]; Pseudoperonospora cubensis, component (b) alone, 10 ppm, read-out: Test 2 Measured): 0%
pest or weed control at 0.4 ppm (Phytophthora infestans; [7]): 16.7%
pest or weed control at 2 ppm (Phytophthora infestans; [8]): 94.2%
pest or weed control at 10 ppm (Phytophthora infestans; Phytophthora infestans, in Solanum lycopersicum, read-out: Test 1 Measured, component (b) alone, 10 ppm): 98.5%

CC(=O)Oc1c(C)c(C)nc2c(F)cc(C(C)(C)C)cc12 [Tebufloquin]
Test 2 Measured ([1]; component (b) alone 4 ppm): 0
Test 2 Measured ([1]; component (b) alone, 20 ppm): 0
Test 2 Measured ([1]; component (b) alone, 100 ppm): 0
Test 1 Measured (Phytophthora infestans; component (b) alone 4 ppm): 0.0
Test 1 Measured (Phytophthora infestans; component (b) alone, 20 ppm): 0.0
Test 1 Measured (Phytophthora infestans; component (b) alone, 100 ppm): 46.7

Cc1cc(C(F)(F)F)nn1CC(=O)N1CCC(c2nc(C3=NOC(c4c(F)cccc4F)C3)cs2)CC1 (stereo not drawn) [Oxathiapiprolin]
Test 2 Measured ([1]; component (b) alone 0.0024 ppm): 40
Test 2 Measured ([1]; component (b) alone 0.012 ppm): 99
Test 2 Measured ([1]; component (b) alone 0.06 ppm): 100
Test 1 Measured (Phytophthora infestans; component (b) alone 0.0024 ppm): 60.2
Test 1 Measured (Phytophthora infestans; component (b) alone 0.012 ppm): 95
Test 1 Measured (Phytophthora infestans; component (b) alone 0.06 ppm): 100
